Experimental data: ChEMBL document CHEMBL1201862, “PubChem BioAssay data set” (2004)
Calls of active or inactive are those of the source.

Experiments:
[1] = target: 5-hydroxytryptamine receptor 5A (Homo sapiens, UniProt P47898); test: Counterscreen for agonists of OPRM1-OPRD1 heterodimerization: luminescence-based cell-based high throughput dose response assay to identify agonists of 5-hydroxytryptamine (serotonin) 5A receptor (HTR5A). [Related pubchem assays (depositor defined):AID504326, AID504355, AID504692, AID504904, AID504905]; assay type: functional
Mu-type opioid receptor = Mu-type opioid receptor (Homo sapiens, UniProt P35372); test: Counterscreen for agonists of heterodimerization of the mu 1 (OPRM1) and delta 1 (OPRD1) opioid receptors: Luminescence-based cell-based high throughput dose response assay to identify agonists of OPRM1 homodimerization.; assay type: functional;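 further: U2OS cells expressing OPRM1 and beta-arrestin as split beta-galactosidase partners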
[2] = target: Delta-type opioid receptor (Homo sapiens, UniProt P41143); test: Counterscreen for agonists of heterodimerization of the mu 1 (OPRM1) and delta 1 (OPRD1) opioid receptors: Luminescence-based cell-based high throughput dose response assay to identify agonists of OPRD1 homodimerization. [Related pubchem assays (depositor defined):AID504326, AID504355, AID504692, AID504904, AID504905]; assay type: functional
[3] = viability loss of HMLE_sh_eGFP cells – cell-based, luminescence, counter-screen for HMLE_sh_ECad selective toxicity project, dose response (AID 463074); assay type: functional, Homo sapiens;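 further: HMLE human mammary epithelial cells expressing control shRNA against eGFP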
[4] = Luminescence Cell-Based Dose Retest to Confirm Inhibitors of Cancer Stem Cells. [Related pubchem assays (depositor defined):AID2717, AID2721]; assay type: functional; conditions: Homo sapiens
H4 = test: Luminescence Cell-Based Dose Response HTS to Identify Activators of 5'UTR Stem-Loop Driven Prion Protein mRNA Translation in H4 Neuroglioblastoma Cells. [Related pubchem assays: 1829 (Project Summary), 1814 (Primary HTS)]; assay type: functional; conditions: Homo sapiens
[5] = viability loss in HepG2 hepatoma cells – cell-based, ATP luminescence, cherry-pick, activator set 2, cytotoxicity control, dose response (AID 1053143); assay type: functional
[6] = Luminescence Cell-Based Dose Response HTS to Identify Activators of Luciferase Translation or Activity in H4 […] Cells. [Related pubchem assays: 1829 (Project Summary), 1814 (Primary HTS)]; assay type: functional
Cytochrome P450 2D6 = Cytochrome P450 2D6 (Homo sapiens, UniProt P10635);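 further: CYP2D6 member of a cytochrome P450 panel assay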
[7] = target: FAD-linked sulfhydryl oxidase ALR (Homo sapiens, UniProt P55789); test: ALR-catalysed DTT oxidation blockers – biochemical, H2O2 detection, luminescence, cherry-pick, dose response (AID 493248)
Coagulation factor XII = Coagulation factor XII (Homo sapiens, UniProt P00748); assay type: functional;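 further: activated factor XIIa alpha cleaving a fluorogenic AMC peptide substrate; inhibitor potency from loss of enzyme activity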
Cytochrome P450 2C19 = Cytochrome P450 2C19 (Homo sapiens, UniProt P33261); test: Cytochrome panel assay with activity outcomes. Panel member name: p450-cyp2c19 Compounds with AC50 equal or less than 10 uM are considered active; assay type: functional; conditions: read-out: AC50
cells [8] = assay type: functional, cell-based
cells [9] = assay type: functional, cell-based; remark: listed apart in the source
Cytochrome P450 2C9 = Cytochrome P450 2C9 (Homo sapiens, UniProt P11712)
[10] = non-specific 3'UTR reporter inhibition in Clone20-Shn3RL – cell-based, Renilla luciferase, cherry-picked, counter-screen for Shn3 inhibitor project, dose response (AID 624133); assay type: functional
[11] = reduction of Shn3 3'UTR-driven luciferase in osteoblasts – cell-based, Clone20 osteoblasts, firefly luciferase, cherry-picked, dose response (AID 624132); assay type: functional;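 further: firefly luciferase luminescence from reporter carrying the Shn3 3'UTR in osteoblasts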
[12] = loss of viability in HepG2 cells – cell-based, CellTiter-Glo, cherry-picked, cytotoxicity control for Shn3 inhibitor project, dose response (AID 624134); assay type: functional
Protein Wnt-3a = Protein Wnt-3a (Mus musculus, UniProt P27467); test: antagonism of Wnt3a pathway luciferase reporter – Wnt-LIGHT cells, luminescence, selectivity assay for Gli-SUFU antagonist project, dose response (AID 651570); assay type: functional; conditions: read-out: IC50_Mean;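 further: Wnt-LIGHT reporter cells stimulated with conditioned medium from Wnt3a-producing cells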
[13] = decrease of insulin promoter-GFP reporter – imaging, high-content screening, mouse beta cells (AID 1628); assay type: functional; conditions: MIN6
[14] = MIN6 cell viability loss – mouse insulinoma, cytotoxicity control, dose response (AID 2122); assay type: functional;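 further: confirmatory high-throughput counterscreen run to flag cytotoxic compounds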
[15] = NIH3T3 cell viability loss – ATP luminescence, mouse fibroblasts, counter-screen, dose response (AID 2010); assay type: functional, cell-based;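 further: cells exposed to compound for about 90 hours before reading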
[16] = Trypanosoma cruzi growth suppression in host cells – NIH3T3 host cells, beta-gal luminescence, confirmation (AID 2044); assay type: functional, cell-based;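 further: intracellular parasites grown in NIH/3T3 mouse fibroblasts as host cells; luminescent beta-galactosidase reporter signal from transgenic T. cruzi replicating inside host cells; inhibitors lower the luminescence signal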
[17] = target: T1, Tyrosine-protein phosphatase non-receptor type 22 (Homo sapiens, UniProt Q9Y2R2); assay type: functional
T1 sequence (Q9Y2R2 whole entry): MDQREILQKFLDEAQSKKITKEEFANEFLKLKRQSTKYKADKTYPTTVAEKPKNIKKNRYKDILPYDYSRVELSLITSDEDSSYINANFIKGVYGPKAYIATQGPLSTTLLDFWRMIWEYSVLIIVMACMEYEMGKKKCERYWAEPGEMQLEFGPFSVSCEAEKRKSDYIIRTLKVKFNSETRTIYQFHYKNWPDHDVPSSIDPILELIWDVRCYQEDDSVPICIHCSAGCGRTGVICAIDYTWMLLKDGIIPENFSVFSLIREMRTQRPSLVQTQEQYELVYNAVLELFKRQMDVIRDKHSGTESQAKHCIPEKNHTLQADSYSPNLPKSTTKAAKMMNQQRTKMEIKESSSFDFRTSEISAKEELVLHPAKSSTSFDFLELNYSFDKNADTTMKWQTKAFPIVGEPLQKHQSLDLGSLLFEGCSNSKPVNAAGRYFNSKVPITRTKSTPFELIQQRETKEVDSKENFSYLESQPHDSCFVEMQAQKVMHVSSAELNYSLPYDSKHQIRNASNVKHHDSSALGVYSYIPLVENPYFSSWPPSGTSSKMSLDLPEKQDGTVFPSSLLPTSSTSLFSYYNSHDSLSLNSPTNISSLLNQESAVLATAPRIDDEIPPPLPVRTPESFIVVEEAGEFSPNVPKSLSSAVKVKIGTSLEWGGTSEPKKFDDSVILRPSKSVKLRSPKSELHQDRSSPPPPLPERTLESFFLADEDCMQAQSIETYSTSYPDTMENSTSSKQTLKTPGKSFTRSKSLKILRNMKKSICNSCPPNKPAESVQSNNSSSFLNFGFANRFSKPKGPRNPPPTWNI

[18] = target: T2, Tyrosine-protein phosphatase non-receptor type 7 (Homo sapiens, UniProt P35236); assay type: functional
T2 sequence (P35236 whole entry): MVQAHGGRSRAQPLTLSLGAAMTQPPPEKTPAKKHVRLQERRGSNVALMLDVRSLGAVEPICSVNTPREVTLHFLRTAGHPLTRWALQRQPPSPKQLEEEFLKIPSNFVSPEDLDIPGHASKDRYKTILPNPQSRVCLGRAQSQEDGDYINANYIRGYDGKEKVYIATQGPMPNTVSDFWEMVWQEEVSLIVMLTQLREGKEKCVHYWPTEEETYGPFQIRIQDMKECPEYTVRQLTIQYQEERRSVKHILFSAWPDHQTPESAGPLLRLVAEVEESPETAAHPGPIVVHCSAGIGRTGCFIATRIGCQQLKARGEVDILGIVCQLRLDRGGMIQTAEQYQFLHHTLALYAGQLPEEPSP

[19] = target: T1, Tyrosine-protein phosphatase non-receptor type 22; assay type: functional; remark: listed apart in the source
[20] = Counterscreen for antagonists of the orexin 1 receptor (OX1R; HCRTR1): Fluorescence-based cell-based high throughput dose response assay to identify antagonists of the parental CHO cell line. [Related pubchem assays (depositor defined):AID434989, AID435008, AID463079, AID485270, AID492963, AID492964, AID492965, AID493232, AID504699, AID504701]; assay type: functional
[21] = target: T3, Orexin/Hypocretin receptor type 1 (Homo sapiens, UniProt O43613); test: Fluorescence-based cell-based high throughput dose response assay for antagonists of the orexin 1 receptor (OX1R; HCRTR1). [Related pubchem assays (depositor defined):AID434989, AID435008, AID463079, AID485270, AID492963, AID492964, AID492965, AID493232, AID504717, AID504718]; assay type: functional
T3 sequence (O43613 whole entry): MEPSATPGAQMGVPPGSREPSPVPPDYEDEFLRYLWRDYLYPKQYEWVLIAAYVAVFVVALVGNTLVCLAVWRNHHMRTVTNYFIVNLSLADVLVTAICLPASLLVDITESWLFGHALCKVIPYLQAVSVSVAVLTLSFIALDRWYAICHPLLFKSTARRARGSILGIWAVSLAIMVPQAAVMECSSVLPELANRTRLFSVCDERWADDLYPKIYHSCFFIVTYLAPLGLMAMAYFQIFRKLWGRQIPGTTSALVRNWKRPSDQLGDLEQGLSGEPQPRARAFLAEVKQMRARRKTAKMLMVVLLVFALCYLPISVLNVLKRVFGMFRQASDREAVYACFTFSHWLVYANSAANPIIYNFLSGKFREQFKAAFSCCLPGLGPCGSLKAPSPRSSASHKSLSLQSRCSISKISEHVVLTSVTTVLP

CHO-K1 = test: Counterscreen for antagonists of the orexin 1 receptor (OX1R; HCRTR1): Homogeneous time resolved fluorescence (HTRF)-based cell-based dose response assay to identify antagonists of the parental CHO-K1 cell line. [Related pubchem assays (depositor defined):AID434989, AID435008, AID463079, AID485270, AID492963, AID492964, AID492965, AID493232, AID504699, AID504701]; assay type: functional; conditions: Cricetulus griseus;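 further: potency for inhibition of ATP-stimulated IP1 production as antagonists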
[22] = target: T3, Orexin/Hypocretin receptor type 1; test: Homogeneous Time Resolved Fluorescence (HTRF)-based cell-based high throughput dose response assay for antagonists of the orexin 1 receptor (OX1R; HCRTR1). [Related pubchem assays (depositor defined):AID434989, AID435008, AID463079, AID485270, AID492963, AID492964, AID492965, AID493232, AID504717, AID504718]; assay type: functional
[23] = target: T4, Polyadenylate-binding protein 1 (Homo sapiens, UniProt P11940); test: MLLE binding blockers, Cy5 peptide tracer – biochemical, fluorescence polarization, Cy5-PAM2 peptide, secondary, miRNA deadenylation inhibitor project, dose response (AID 602260); assay type: functional; conditions: read-out: IC50_Mean
[24] = target: T4, Polyadenylate-binding protein 1; test: MLLE domain peptide-binding blockers, IC50 – biochemical, fluorescence polarization, FITC-PAM2 peptide, dose response (AID 602259); assay type: functional; conditions: read-out: IC50_Mean
[25] = target: T5, Alkaline phosphatase, tissue-nonspecific isozyme (Homo sapiens, UniProt P05186)
T5 sequence (P05186 whole entry): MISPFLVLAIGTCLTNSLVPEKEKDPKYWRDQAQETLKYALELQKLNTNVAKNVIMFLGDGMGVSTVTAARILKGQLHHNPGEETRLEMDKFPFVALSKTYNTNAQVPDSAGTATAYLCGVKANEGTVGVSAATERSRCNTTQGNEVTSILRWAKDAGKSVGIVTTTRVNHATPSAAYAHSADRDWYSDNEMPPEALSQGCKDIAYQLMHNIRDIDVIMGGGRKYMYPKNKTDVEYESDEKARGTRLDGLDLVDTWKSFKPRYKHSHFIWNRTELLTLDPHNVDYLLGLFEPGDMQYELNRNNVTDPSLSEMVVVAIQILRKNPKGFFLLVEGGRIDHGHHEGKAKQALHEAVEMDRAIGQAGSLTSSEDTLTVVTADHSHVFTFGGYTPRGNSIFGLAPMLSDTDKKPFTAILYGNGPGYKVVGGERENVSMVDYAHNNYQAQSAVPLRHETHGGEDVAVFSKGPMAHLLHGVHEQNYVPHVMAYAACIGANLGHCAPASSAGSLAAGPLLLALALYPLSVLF

T4 sequence (P11940 whole entry, the tested form may be a part): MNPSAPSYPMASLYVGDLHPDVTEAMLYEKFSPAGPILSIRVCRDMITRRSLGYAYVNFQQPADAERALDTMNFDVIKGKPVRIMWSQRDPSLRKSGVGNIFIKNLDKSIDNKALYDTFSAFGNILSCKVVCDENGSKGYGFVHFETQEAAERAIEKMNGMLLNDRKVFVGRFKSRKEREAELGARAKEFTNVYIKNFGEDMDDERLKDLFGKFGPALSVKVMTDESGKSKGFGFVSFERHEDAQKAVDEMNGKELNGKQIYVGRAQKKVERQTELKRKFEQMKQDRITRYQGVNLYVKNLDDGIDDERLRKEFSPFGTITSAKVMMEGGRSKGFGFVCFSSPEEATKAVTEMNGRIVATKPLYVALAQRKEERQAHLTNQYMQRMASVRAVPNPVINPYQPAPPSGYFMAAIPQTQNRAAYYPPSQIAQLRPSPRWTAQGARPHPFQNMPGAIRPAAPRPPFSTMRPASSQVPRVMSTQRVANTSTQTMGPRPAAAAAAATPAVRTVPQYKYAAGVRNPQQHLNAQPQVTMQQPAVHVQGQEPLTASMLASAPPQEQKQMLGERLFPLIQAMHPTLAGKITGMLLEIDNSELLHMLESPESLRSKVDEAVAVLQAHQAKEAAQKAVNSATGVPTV
Chain of Cytochrome P450 2D6 (P10635 whole entry): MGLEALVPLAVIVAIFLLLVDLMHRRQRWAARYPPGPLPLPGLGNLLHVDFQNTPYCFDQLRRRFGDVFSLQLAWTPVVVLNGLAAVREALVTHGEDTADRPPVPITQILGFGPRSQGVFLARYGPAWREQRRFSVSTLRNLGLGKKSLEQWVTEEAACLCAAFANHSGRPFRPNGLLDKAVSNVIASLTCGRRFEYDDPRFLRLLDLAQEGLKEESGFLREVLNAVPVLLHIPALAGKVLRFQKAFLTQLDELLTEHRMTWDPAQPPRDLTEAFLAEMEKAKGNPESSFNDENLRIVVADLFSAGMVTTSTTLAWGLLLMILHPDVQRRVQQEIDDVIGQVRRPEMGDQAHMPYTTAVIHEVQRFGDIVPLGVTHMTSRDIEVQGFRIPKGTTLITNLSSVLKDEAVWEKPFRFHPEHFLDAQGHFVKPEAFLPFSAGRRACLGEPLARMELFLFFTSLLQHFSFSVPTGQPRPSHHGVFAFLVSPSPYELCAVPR
Chain of Coagulation factor XII (P00748 20-372 limits assumed): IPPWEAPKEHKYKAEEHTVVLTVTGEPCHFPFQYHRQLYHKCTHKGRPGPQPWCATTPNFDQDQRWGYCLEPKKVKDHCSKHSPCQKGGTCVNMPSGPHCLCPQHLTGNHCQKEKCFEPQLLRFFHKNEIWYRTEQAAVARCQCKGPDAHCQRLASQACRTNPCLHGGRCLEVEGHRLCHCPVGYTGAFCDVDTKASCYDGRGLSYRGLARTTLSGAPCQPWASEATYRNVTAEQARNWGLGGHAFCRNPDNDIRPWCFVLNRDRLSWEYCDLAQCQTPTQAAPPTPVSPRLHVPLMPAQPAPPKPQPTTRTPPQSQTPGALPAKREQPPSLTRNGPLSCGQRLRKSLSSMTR
Chain of Coagulation factor XII (P00748 373-615 limits assumed): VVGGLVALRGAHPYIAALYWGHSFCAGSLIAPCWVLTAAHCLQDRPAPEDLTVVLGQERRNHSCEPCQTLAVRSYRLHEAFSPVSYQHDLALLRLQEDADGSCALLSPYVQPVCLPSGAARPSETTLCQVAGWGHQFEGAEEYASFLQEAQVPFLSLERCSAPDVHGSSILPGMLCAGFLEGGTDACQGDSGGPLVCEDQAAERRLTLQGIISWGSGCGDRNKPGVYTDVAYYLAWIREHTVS
Chain of Cytochrome P450 2C9 (P11712 whole entry): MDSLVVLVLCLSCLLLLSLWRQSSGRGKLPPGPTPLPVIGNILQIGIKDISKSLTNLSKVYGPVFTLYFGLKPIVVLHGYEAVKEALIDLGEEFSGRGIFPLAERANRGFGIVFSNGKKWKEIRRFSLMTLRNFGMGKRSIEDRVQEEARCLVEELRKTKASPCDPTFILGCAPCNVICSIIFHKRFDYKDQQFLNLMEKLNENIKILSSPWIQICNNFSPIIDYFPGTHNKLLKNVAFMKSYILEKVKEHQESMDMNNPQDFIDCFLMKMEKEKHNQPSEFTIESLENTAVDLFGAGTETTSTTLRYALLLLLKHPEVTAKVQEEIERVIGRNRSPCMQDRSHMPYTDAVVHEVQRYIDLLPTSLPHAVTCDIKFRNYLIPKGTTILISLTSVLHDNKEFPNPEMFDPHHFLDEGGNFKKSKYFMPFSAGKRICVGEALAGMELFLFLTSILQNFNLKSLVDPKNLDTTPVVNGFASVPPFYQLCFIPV
Chain of 5-hydroxytryptamine receptor 5A (P47898 whole entry): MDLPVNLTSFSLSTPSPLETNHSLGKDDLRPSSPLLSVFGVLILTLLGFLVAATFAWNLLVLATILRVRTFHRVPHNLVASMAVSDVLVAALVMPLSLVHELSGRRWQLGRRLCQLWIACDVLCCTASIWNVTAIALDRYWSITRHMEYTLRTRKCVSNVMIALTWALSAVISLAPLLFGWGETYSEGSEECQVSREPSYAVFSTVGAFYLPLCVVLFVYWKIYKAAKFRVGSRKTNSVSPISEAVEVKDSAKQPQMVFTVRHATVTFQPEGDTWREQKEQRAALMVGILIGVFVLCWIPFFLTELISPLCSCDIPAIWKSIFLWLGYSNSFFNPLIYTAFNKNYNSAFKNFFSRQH
Chain of Cytochrome P450 2C19 (P33261 whole entry): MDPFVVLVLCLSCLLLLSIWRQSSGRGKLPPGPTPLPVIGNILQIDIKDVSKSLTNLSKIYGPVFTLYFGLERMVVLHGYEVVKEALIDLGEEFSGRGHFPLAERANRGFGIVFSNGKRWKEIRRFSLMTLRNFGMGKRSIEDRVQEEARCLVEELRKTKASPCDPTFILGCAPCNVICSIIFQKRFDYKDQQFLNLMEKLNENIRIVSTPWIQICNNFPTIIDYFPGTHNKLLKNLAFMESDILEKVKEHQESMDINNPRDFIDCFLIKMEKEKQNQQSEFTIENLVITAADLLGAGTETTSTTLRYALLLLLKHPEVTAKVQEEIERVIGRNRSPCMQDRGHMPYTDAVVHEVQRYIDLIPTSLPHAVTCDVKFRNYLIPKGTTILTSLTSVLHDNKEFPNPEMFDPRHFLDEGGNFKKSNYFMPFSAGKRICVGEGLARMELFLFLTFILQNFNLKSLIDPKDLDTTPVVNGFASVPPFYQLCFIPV
Chain of Delta-type opioid receptor (P41143 whole entry): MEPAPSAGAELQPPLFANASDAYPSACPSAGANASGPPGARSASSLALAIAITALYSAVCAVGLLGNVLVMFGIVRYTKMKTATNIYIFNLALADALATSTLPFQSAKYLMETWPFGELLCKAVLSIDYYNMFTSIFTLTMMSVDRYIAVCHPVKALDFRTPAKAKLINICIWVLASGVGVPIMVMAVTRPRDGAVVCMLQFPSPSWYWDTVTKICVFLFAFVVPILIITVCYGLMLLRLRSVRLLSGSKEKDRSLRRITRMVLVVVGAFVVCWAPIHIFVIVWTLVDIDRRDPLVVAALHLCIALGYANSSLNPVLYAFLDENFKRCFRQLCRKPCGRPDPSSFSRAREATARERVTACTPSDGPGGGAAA
Chain of FAD-linked sulfhydryl oxidase ALR (P55789 whole entry): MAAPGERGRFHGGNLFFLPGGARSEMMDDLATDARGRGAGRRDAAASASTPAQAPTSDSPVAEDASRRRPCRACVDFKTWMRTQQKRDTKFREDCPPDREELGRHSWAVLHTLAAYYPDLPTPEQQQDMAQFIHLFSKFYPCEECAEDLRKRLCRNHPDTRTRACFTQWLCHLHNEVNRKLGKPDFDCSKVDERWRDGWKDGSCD
Chain of Mu-type opioid receptor (P35372 whole entry): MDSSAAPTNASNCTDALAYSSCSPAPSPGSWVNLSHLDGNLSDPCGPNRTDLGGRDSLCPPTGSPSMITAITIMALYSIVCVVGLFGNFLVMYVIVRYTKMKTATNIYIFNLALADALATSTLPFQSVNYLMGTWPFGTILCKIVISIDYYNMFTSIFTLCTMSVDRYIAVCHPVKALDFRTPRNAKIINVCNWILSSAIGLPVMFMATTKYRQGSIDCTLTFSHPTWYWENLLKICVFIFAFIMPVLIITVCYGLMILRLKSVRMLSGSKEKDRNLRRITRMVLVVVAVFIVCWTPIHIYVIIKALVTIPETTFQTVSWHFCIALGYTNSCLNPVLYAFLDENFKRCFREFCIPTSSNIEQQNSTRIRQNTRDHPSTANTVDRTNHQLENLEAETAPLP
Chain of Protein Wnt-3a (P27467 whole entry): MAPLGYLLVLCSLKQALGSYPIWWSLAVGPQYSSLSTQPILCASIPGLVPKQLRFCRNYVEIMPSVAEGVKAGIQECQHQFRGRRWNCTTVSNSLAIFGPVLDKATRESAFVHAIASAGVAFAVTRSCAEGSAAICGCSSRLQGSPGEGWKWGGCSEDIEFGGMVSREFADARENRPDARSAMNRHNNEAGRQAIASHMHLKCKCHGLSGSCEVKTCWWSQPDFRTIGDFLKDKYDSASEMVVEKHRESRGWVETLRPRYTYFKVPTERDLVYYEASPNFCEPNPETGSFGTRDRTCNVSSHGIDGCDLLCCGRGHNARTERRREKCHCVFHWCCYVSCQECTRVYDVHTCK

Structure (SMILES): O=C(NCCc1ccc(Cl)cc1)C1CCC(CNc2nc(=S)[nH]c3ccccc23)CC1 (configuration not stated)
- EC50 [1]: > 92.5 µM (inactive)
- EC50 (Mu-type opioid receptor): > 92.5 µM (inactive)
- EC50 [2]: > 92.5 µM (inactive)

Structure (SMILES): Cc1oc(=O)c(NC(=O)c2cccc(Cl)c2)cc1C(=O)c1ccccc1
- AC50 [3]: 21.7 µM (active)
- AC50 [4]: 16.4 µM (active)
- EC50 (H4): 90.8 µM (active)
- AC50 [5]: 26 µM (active)
- EC50 [6]: 6.62 µM (active)

Structure (SMILES): C[N+]1(CCC(=O)c2ccco2)C[C@H]2CC[C@H](CC2)C1 (some centres not stated)
- AC50 (Cytochrome P450 2D6): inconclusive

Structure (SMILES): Cc1ccc(/C=N\Nc2nc3cc(Cl)ccc3[nH]2)o1
- AC50 [7]: 0.289 µM (active)
- IC50 (Coagulation factor XII): > 50 µM (inactive)
- AC50 (Cytochrome P450 2C19): 28.2 µM (inconclusive)
- EC50 (cells [8]): 27.6 µM (active)
- EC50 (cells [9]): > 350 µM (not active)
- AC50 (Cytochrome P450 2C9): 7.08 µM (inconclusive)

Structure (SMILES): CCc1c(C)nc2ncnn2c1N1CCN(S(=O)(=O)c2ccc(OC)cc2)CC1
- AC50 [10]: 3.52 µM (active)
- AC50 [11]: 1.16 µM (active)
- AC50 [12]: 5.28 µM (active)
- IC50 (Protein Wnt-3a): 5.74 µM (active)
- IC50 [13]: 1.35 µM (active)
- IC50 [14]: 0.936 µM (active)

Structure (SMILES): COc1ccc(CN2CCN(C(=O)C3CCC(CNS(=O)(=O)c4ccccc4)CC3)CC2)c(OC)c1OC (configuration not stated)
- EC50 [15]: > 60 µM (not active)
- IC50 (Coagulation factor XII): > 50 µM (inactive)
- EC50 [16]: 0.503 µM (active)

Structure (SMILES): Cc1ccsc1/C=C1/SC(=O)N(CC(=O)N2CCOCC2)C1=O
- AC50 (Cytochrome P450 2D6): inconclusive

Structure (SMILES): CCOC(=O)CC1(NC(=O)c2cc(COc3cncc(Cl)c3)on2)CCCCC1
- IC50 [17]: > 79.4 µM (inactive)
- IC50 [18]: > 79.4 µM (inactive)
- IC50 [19]: > 79.4 µM (inactive)

Structure (SMILES): C[C@@H]1CN([C@@H](C)CO)C(=O)c2cccc(NC(=O)Nc3ccc(F)cc3)c2O[C@@H]1CN(C)Cc1ccc(Oc2ccccc2)cc1
- IC50 [20]: 23.7 µM (inactive)
- IC50 [21]: 11.2 µM (inactive)
- IC50 (CHO-K1): > 66.2 µM (inactive)
- IC50 [22]: > 66.2 µM (inactive)

Structure (SMILES): COCCNC(=S)N/N=C(\C)c1ccccc1O
- IC50 [23]: > 66 µM (inactive)
- IC50 [24]: > 66 µM (inactive)
- IC50 [13]: 2.44 µM (active)
- IC50 [14]: 1.01 µM (active)
- EC50 [25]: 70.7 µM (not active)
